Experimental data reported in patent publication US4069016A, “Assay for bilirubin” (priority 1977, dated 1978).
Where two headings read alike, the source gives them in different places.

What was measured:
[1] = tested on: Human Serum Albumin; details: cited from earlier work
[2] = target: T1, HSA (Homo sapiens, UniProt P02768); assay: Bromophenol blue-HSA binding and competitive displacement by bilirubin, ultrafiltration, 590 nm
T1 construct: purchased Pentex, Miles Laboratories, Inc
From the text: In this Example, a solution assay for bilirubin in accord with the method of the present invention is illustrated. […] Using an Amicon Ultraflo Membrane Cone CF-25 (having a molecular weight cutoff of 25,000 daltons) in an ultrafiltration technique as described by U. Kragh-Hansen et. al., Biochim. et Biophys.

[3] = target: T1, HSA; assay: ANS-HSA complex solution assay, fluorescence (ANS binding and displacement by bilirubin)
Method: Where the detectable ligand used in the following Examples was a fluorescent probe, arbitrary fluorescence, F, was recorded both immediately before and after addition of bilirubin (B) to the complex. The difference in these F values (i.e. ΔF) was then expressed as a percentage value by arbitrarily designating the F value for the complex at 100 prior to addition of any bilirubin analyte to the complex (i.e. at zero B concentration). A series of Δ F values were then plotted for a given complex having a constant D/P ratio against a series of liquid test samples containing varying B concentrations. As a result, one obtained a calibration curve for that complex. A liquid test sample containing an unknown amount of B, could then be evaluated by the Δ F value for that sample using the calibrated complex and then locating this Δ F value on the previously prepared calibration curve for the complex.
In this Example, fluorescence of the ANS-albumin complex was obtained by exciting the complex at an excitation maximum of 386 nanometers. […] As is known, the fluorescent probe ANS is highly fluorescent when associated with albumin, but is non-fluorescent when free in solution.
The fluorescence of each of these individual test solutions was monitored as bilirubin-containing test samples were admixed into these individual solutions. […]

[4] = target: Human Serum Albumin; details: cited from earlier work; for first order binding constant KA to human serum albumin: Kragh-Hansen et al. 1974
[5] = 435 nanometers; cited from earlier work
[6] = Molar absorptivity / extinction coefficient; format: physicochemical; details: at or near 590 nanometers
From the text: Among others, there are various direct spectrophotometric assay techniques for bilirubin which take advantage of the molar absorbtivity inherent in bilirubin. That is, bilirubin is a yellow pigment having a molar absorbtivity of about 5 × 10^4 as measured at 435 nanometers. However, although the molar absorbtivity of bilirubin is high enough to be useful in various direct spectrophotometric solution assay techniques, it is not sufficiently high to produce a quantitative assay for bilirubin using "dry chemistry" analytical test elements. Thus, present-day direct spectrophotometric assay techniques for bilirubin are generally limited to solution assay techniques, particularly if accurate, quantitative results are desired. […] In addition, other materials present in bilirubin-containing biological fluids such as human serum can also cause spectral interferences using such direct spectrophotometric assay methods.
In this Example, a solution assay for bilirubin in accord with the method of the present invention is illustrated. The assay of the present Example is similar to that described in Examples 1 and 2 above, except that the present Example illustrates the use of a colorimetric, rather than a fluorometric, assay using bromophenol blue indicator dye as the detectable ligand in the bilirubin-active complex. […]

T1 sequence (P02768 25-609): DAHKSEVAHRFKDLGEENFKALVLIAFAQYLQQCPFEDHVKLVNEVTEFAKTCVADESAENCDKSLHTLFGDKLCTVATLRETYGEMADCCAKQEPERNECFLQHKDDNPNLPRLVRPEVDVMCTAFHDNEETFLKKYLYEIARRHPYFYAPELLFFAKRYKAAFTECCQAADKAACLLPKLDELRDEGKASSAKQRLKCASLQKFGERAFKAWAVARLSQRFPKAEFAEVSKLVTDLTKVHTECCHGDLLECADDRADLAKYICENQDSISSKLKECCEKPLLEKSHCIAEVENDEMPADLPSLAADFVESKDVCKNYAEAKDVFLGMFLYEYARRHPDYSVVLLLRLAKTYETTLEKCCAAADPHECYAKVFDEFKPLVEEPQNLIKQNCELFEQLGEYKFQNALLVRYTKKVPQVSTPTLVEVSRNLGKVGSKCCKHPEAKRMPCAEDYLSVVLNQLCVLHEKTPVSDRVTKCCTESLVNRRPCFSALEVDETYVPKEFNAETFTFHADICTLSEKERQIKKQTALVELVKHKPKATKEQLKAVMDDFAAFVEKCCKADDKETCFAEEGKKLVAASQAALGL

C[C@]12CCC(=O)C=C1CC[C@@H]1[C@@H]2[C@@H](O)C[C@]2(C=O)[C@@H](C(=O)CO)CC[C@@H]12 [Aldosterone]
Binding Constant of primary or high affinity site(s) KA ([1]; pH 7.4, 5° C): < 5000 M⁻¹

C=CC1=C(C)/C(=C/c2[nH]c(Cc3[nH]c(/C=C4\NC(=O)C(C)=C4C=C)c(C)c3CCC(=O)O)c(CCC(=O)O)c2C)NC1=O [Bilirubin]
inhibition at 0.244 µg/mL ([2]; pH 7.4, read-out: decrease in bromophenol blue binding to HSA, standard test solution about 0.0244 mg bilirubin per deciliter added): ~33% | amount of bromophenol blue competitively displaced from the albumin carrier ([2]; standard test solution approximately 10 mg bilirubin per deciliter, compared with 0.0244 mg/dl): substantially higher amount | reduction in fluorescence of ANS/HSA complexes (displacement of ANS) ([3]; 0.066 mg/dl bilirubin added, pH 7.4): drastic reduction in fluorescence | extent of displacement of ANS from albumin (change in fluorescence) versus bilirubin ([3]; 25 micromoles/l ANS, 15 micromoles/l HSA, bilirubin 0.03-0.33 mg/dl): quasi-linearly related to the amount of bilirubin added | Binding Constant of primary or high affinity site(s) KA ([1]; pH 7.4, 25° C): 2.4e+08 M⁻¹ | Binding Constant of primary or high affinity site(s) KA ([1]; pH 7.4, 37° C): 1.4e+08 M⁻¹ | first order binding constant KA to human serum albumin [4]: greater than 10^8 M^-1 | Kd ([4]; example given for comparison in Example 3, read-out: binding constant to albumin): ~0.01 µM | molar absorbtivity [5]: about 5 × 10^4

O=C1NC(=O)C(c2ccccc2)(c2ccccc2)N1 [Dipheylhydantoin, reference compound]
Binding Constant of primary or high affinity site(s) KA ([1]; pH not given (--), 37° C): 6000 M⁻¹

C[C@]12CC[C@@H]3c4ccc(O)cc4CC[C@H]3[C@@H]1CC[C@@H]2O [Estradiol]
Binding Constant of primary or high affinity site(s) KA ([1]; pH 7.4, 5° C): 100000 M⁻¹

N[C@@H](Cc1cc(I)c(Oc2cc(I)c(O)c(I)c2)c(I)c1)C(=O)O [L-thyroxine]
Binding Constant of primary or high affinity site(s) KA ([1]; pH 7.4, 24° C): 10^6 M^-1

N[C@@H](Cc1c[nH]c2ccccc12)C(=O)O [L-tryptophan]
Binding Constant of primary or high affinity site(s) KA ([1]; pH 7.4, 2° C): 16000 M⁻¹

CC(=O)[C@H]1CC[C@H]2[C@@H]3CCC4=CC(=O)CC[C@]4(C)[C@H]3CC[C@]12C [Progesterone]
Binding Constant of primary or high affinity site(s) KA ([1]; pH 7.4, 5° C): 37000 M⁻¹

O=C(O)c1ccccc1 [Sodium benzoate]
Binding Constant of primary or high affinity site(s) KA ([1]; pH 7.4, 37° C): 1700 M⁻¹

Nc1ccc(S(=O)(=O)Nc2ncccn2)cc1 [Sulfadiazine, reference compound]
Binding Constant of primary or high affinity site(s) KA ([1]; pH 7.4, 37° C): 820 M⁻¹

Cc1noc(NS(=O)(=O)c2ccc(N)cc2)c1C [Sulfisoxazole, reference compound]
Binding Constant of primary or high affinity site(s) KA ([1]; pH 7.4, 37° C): 19000 M⁻¹

C[C@]12CC[C@H]3[C@@H](CCC4=CC(=O)CC[C@@]43C)[C@@H]1CC[C@@H]2O [Testosterone]
Binding Constant of primary or high affinity site(s) KA ([1]; pH 7.4, 25° C): 42000 M⁻¹

O=c1[nH]c(=O)c2[nH]c(=O)[nH]c2[nH]1 [Urate]
Binding Constant of primary or high affinity site(s) KA ([1]; pH 7.4, 37° C): 300 M⁻¹

O=S1(=O)OC(c2cc(Br)c(O)c(Br)c2)(c2cc(Br)c(O)c(Br)c2)c2ccccc21 [bromophenol blue, reference compound]
Kd [2]: 0.5 µM | approximate maximum molar binding ratio of bromophenol blue to HSA ([2]; 0.05 M sodium phosphate pH 7.4): about 3.4 | extinction coefficient [6]: approximately 78,000

CCCCCCCCCCCCCCCC(=O)O [palmitate]
Binding Constant of primary or high affinity site(s) KA ([1]; pH 7.4, 23° C): 10^6 M^-1

O=S1(=O)OC(c2ccc(O)cc2)(c2ccc(O)cc2)c2ccccc21 [phenol red, reference compound]
first order binding constant KA to human serum albumin [4]: about 10^4 M^-1

Gentamicin sulfate [reference compound]
Binding Constant of primary or high affinity site(s) KA ([1]; pH 7.4, 37° C): < 10 M⁻¹

Polymyzin B sulfate [reference compound]
Binding Constant of primary or high affinity site(s) KA ([1]; pH 7.4, 37° C): < 100 M⁻¹
